Consider seven molecules from ChEMBL document CHEMBL2074346, “Mouse breast cancer resistance protein (Bcrp1/Abcg2) mediates etoposide resistance and transport, but etoposide oral availability is limited primarily by P-glycoprotein” (Cancer Res, 2003).

The structures appear in SMILES notation.

The first series concerns the target T1, Broad substrate specificity ATP-binding cassette transporter ABCG2 (Mus musculus, UniProt Q7TMS5).
T1 sequence (Q7TMS5 whole entry): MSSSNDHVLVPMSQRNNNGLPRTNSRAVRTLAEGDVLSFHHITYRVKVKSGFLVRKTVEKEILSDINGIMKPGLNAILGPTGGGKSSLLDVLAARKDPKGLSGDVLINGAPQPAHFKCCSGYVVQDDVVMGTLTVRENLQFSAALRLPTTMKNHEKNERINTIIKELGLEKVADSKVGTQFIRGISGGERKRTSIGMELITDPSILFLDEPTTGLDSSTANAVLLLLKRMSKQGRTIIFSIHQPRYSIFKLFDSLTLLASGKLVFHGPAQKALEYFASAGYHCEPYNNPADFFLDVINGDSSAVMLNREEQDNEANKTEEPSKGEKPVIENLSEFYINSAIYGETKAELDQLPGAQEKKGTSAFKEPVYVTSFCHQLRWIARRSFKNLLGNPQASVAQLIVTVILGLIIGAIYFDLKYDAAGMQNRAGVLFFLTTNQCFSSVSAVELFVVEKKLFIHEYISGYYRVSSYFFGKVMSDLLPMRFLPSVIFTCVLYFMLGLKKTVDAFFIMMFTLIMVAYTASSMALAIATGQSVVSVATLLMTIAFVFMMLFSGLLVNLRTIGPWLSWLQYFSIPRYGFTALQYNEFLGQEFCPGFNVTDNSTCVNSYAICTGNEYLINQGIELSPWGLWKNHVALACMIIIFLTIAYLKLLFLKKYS
The experiment in a line: TP_TRANSPORTER: transepithelial transport (basal to apical) in BCRP-expressing MDCKII cells. The settings on record: dog, mdck-ii. In kind it is functional, cell-based.
Consider `COc1cc([C@@H]2c3cc4c(cc3[C@@H](O[C@@H]3O[C@@H]5CO[C@@H](C)O[C@H]5[C@H](O)[C@H]3O)[C@H]3COC(=O)[C@H]23)OCO4)cc(OC)c1O` [ETOPOSIDE], for which the Activity result was “substrate []”.

Another series addresses T1, Broad substrate specificity ATP-binding cassette transporter ABCG2. As to the kind of experiment: TP_TRANSPORTER: drug resistance in BCRP-expressing MEF3.8 cells. In kind it is functional, cell-based.
Conditions: not given
For `O=C1c2c(O)ccc(O)c2C(=O)c2c(NCCNCCO)ccc(NCCNCCO)c21` [MITOXANTRONE], the Activity entry was “substrate []”.
For `COc1cc([C@@H]2c3cc4c(cc3[C@@H](O[C@@H]3O[C@@H]5CO[C@@H](c6cccs6)O[C@H]5[C@H](O)[C@H]3O)[C@H]3COC(=O)[C@H]23)OCO4)cc(OC)c1O` [TENIPOSIDE], the Activity result is “substrate []”.
For the molecule `COc1cc([C@@H]2c3cc4c(cc3[C@@H](O[C@@H]3O[C@@H]5CO[C@@H](C)O[C@H]5[C@H](O)[C@H]3O)[C@H]3COC(=O)[C@H]23)OCO4)cc(OC)c1O` [ETOPOSIDE], the Activity result is “substrate []”.
Regarding `CC[C@@]1(O)C(=O)OCc2c1cc1n(c2=O)Cc2cc3c(CN(C)C)c(O)ccc3nc2-1` [TOPOTECAN], the Activity result is “substrate []”.
The same measure, in the same setting: the entry for `C(=N\NC1=NCCN1)/c1c2ccccc2c(/C=N/NC2=NCCN2)c2ccccc12` [BISANTRENE] is “substrate []”.
Regarding `CC[C@]1(O)C[C@H]2CN(CCc3c([nH]c4ccccc34)[C@@](C(=O)OC)(c3cc4c(cc3OC)N(C=O)[C@H]3[C@@](O)(C(=O)OC)[C@H](OC(C)=O)[C@]5(CC)C=CCN6CC[C@]43[C@@H]65)C2)C1` [VINCRISTINE], the Activity result was “substrate []”.
With `COc1cccc2c1C(=O)c1c(O)c3c(c(O)c1C2=O)C[C@@](O)(C(=O)CO)C[C@@H]3O[C@H]1C[C@H](N)[C@H](O)[C@H](C)O1` [DOXORUBICIN], the Activity entry is “substrate []”.
